Experiment [1] has as its system primary human mesenchymal stem cells (hMSCs). The experiment can be described thus: Induction of chondrogenesis in hMSCs (nodule area, Rhodamine B / Nile Red). Format: cell-based. Conditions: TGF-β3 as positive control; for Emax: read-out: Max. Activity as % TGF-β3 activity; for EC50: concentration required to induce 50% levels of chondrogenesis, read-out: Conc (nM) of 50% TGF-β3 activity. Here is the method:
Representative compounds were screened using primary human mesenchymal stem cells (hMSCs) to determine their ability to induce chondrogenesis (process by which cartilage is developed).
Primary human mesenchymal stem cells (hMSCs) were purchased from Lonza (Walkersville, Md.) and expanded in Mesenchymal Stem Cell Growth Media (Lonza). Cells between passage 3 and 6 were used for the experiments.
Each compound was dissolved in DMSO as a 10 mM stock and used to prepare compound source plates. For the 96 well assay, serial dilution (1:3, 6-point dose-response curves from 2700 nM to 10 nM) and compound transfer was performed using the ECHO 550 (Labcyte, Sunnyvale, Calif.) into 96-well clear bottom assay plates (Greiner Bio-One) with appropriate DMSO backfill for a final DMSO concentration of 0.03%. hMSCs were plated at 20,000 cells/well in 250 μL/well Incomplete Chondrogenic Induction Medium (Lonza; DMEM, dexamethasone, ascorbate, insulin-transferrin-selenium [ITS supplement], gentamycin-amphotericin [GA-1000], sodium pyruvate, proline and L-glutamine). TGF-β3 (10 ng/mL) was used as a positive control for differentiation while negative control wells were treated with 75 nL DMSO for normalization and calculating EC50 values. For the 384 well assay, serial dilution (1:3, 8-point dose-response curves from 5000 nM to 2.2 nM) and compound transfer was performed using the ECHO 550 (Labcyte, Sunnyvale, Calif.) into 384-well clear bottom assay plates (Greiner Bio-One) with appropriate DMSO backfill for a final DMSO concentration of 0.03%. hMSCs were plated at 8,000 cells/well in 80 μL/well Incomplete Chondrogenic Induction Medium (Lonza; DMEM, dexamethasone, ascorbate, insulin-transferrin-selenium [ITS supplement], gentamycin-amphotericin [GA-1000], sodium pyruvate, proline and L-glutamine). TGF-β3 (10 ng/mL) was used as a positive control for differentiation while negative control wells were treated with 25 nL DMSO for normalization and calculating EC50 values. Cells were incubated at 37° C. and 5% CO2 for 6 days. To image chondrogenic nodules, the cells were fixed using 4% formaldehyde (Electron Microscopy Sciences), and stained with 2 μg/mL Rhodamine B (Sigma-Aldrich) and 20 μM Nile Red (Sigma-Aldrich) [Johnson K., et. al, A Stem Cell-Based Approach to Cartilage Repair, Science, (2012), 336(6082), 717-721]. The nodules imaged (25 images per well for 96 well plates and 9 images per well for 384 well plates at 10× magnification) by excitation at 531 nm and emission at 625 nm and quantified using the CellInsight CX5 (Thermo Scientific). Area of nodules in each well was normalized to the average of 3 DMSO treated wells on the same plate using Excel (Microsoft Inc.). The normalized averages (fold change over DMSO) of 2 or 3 replicate wells for each compound concentration were calculated. Due to solubility limitations of some of the compounds, curve fitting was incomplete leading to inaccurate EC50 determinations.
Using TGF-β3 as a positive control, the concentration of representative compounds required to induce 50% levels of chondrogenesis is reported. In addition, the maximum activity of each compound and the respective dose that each compound reached maximum chondrogenesis activity is reported.

The subject of experiment [2] is Wnt activity (Wnt-responsive human Sp5 promoter, TCF/LEF binding sites) in SW480 colon carcinoma cells. In words: Wnt activity screening assay: Sp5-Luc luciferase reporter gene in SW480 cells. It counts as cell-based. Conditions: for EC50: 10-point dose-response from 10 μM, incubated overnight; for inhibition at 10 µM: given for EC50 of >10 μM, read-out: percent inhibition at 10 μM. The method in brief:
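SW480 cells stably transduced with an Sp5 promoter (eight TCF/LEF sites)–firefly luciferase lentiviral reporter, plated at 4,000 cells/well in 1% FBS medium with compounds (10-point 1:3 series from 10 μM, 0.1% DMSO) overnight at 37 °C. BrightGlo luminescence normalised to DMSO; EC50 by four-parameter fit, else % inhibition at 10 μM.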

For `CC(C)Nc1cncc(-c2ccc3[nH]nc(-c4nc5c(-c6ccoc6)nccc5[nH]4)c3n2)c1` [Compound 320, 5-(3-(4-(Furan-3-yl)-1H-imidazo[4,5-c]pyridin-2-yl)-1H-pyrazolo[4,3-b]pyridin-5-yl)-N-isopropylpyridin-3-amine], in experiment [1], the Emax was determined as 76% and the EC50 came out at 30 nM. The same compound gave an EC50 in experiment [2] of 356 nM.

As a reminder, the inhibition is the share of the control response that was lost under treatment. In the case of `Nc1cncc(-c2ccc3[nH]nc(-c4nc5c(-c6ccccc6F)nccc5[nH]4)c3n2)c1` [Compound 59, 5-(3-(4-(2-Fluorophenyl)-1H-imidazo[4,5-c]pyridin-2-yl)-1H-pyrazolo[4,3-b]pyridin-5-yl)pyridin-3-amine], in experiment [1], the Emax is 108% and the EC50 stood at 10 nM. In experiment [2], the EC50 was over 10000 nM and the inhibition at 10 µM stood at 27.7%.

Turning to `CC(C)C(=O)Nc1cncc(-c2ccc3[nH]nc(-c4nc5c(-c6ccccc6F)nccc5[nH]4)c3n2)c1` [Compound 65, N-(5-(3-(4-(2-fluorophenyl)-1H-imidazo[4,5-c]pyridin-2-yl)-1H-pyrazolo [4,3-b]pyridin-5-yl)pyridin-3-yl)isobutyramide], in experiment [1], the Emax is 140% and the EC50 amounted to 10 nM. Also, in experiment [2], the EC50 is over 10000 nM and the inhibition at 10 µM is 2.7%.

For `O=C(Nc1cncc(-c2ccc3[nH]nc(-c4nc5c(-c6ccc(F)cc6)nccc5[nH]4)c3n2)c1)C1CCC1` [Compound 49, N-(5-(3-(4-(4-Fluorophenyl)-1H-imidazo[4,5-c]pyridin-2-yl)-1H-pyrazolo [4,3-b]pyridin-5-yl)pyridin-3-yl)cyclobutanecarboxamide], in experiment [1], the Emax was 45%. The compound further yielded an EC50 in experiment [2] of 4080 nM.

For `CCCCC(=O)Nc1cncc(-c2ccc3[nH]nc(-c4nc5c(-c6ccccn6)nccc5[nH]4)c3n2)c1` [Compound 159, N-(5-(3-(4-(Pyridin-2-yl)-1H-imidazo[4,5-c]pyridin-2-yl)-1H-pyrazolo[4,3-b]pyridin-5-yl)pyridin-3-yl)pentanamide], in experiment [1], the Emax is 113% and the EC50 was 10 nM. Further, in experiment [2], the EC50 is over 10000 nM and the inhibition at 10 µM amounted to 1.2%.

`CCCCC(=O)Nc1cncc(-c2ccc3[nH]nc(-c4nc5c(-c6ccoc6)nccc5[nH]4)c3n2)c1` [Compound 327, N-(5-(3-(4-(Furan-3-yl)-1H-imidazo[4,5-c]pyridin-2-yl)-1H-pyrazolo[4,3-b]pyridin-5-yl)pyridin-3-yl)pentanamide]: in experiment [1], the Emax is 91%. Besides, the EC50 in experiment [1] amounted to 10 nM; in experiment [2], 2030 nM.

As to `Fc1ccc(-c2nccc3[nH]c(-c4n[nH]c5ccc(-c6cncc(CN7CCCC7)c6)nc45)nc23)cc1` [Compound 42, 3-(4-(4-Fluorophenyl)-1H-imidazo[4,5-c]pyridin-2-yl)-5-(5-(pyrrolidin-1-ylmethyl)pyridin-3-yl)-1H-pyrazolo[4,3-b]pyridine], in experiment [1], the Emax was 39%. In experiment [2], the EC50 is over 10000 nM and the inhibition at 10 µM was 28.2%.

As for `CC(C)C(=O)Nc1cncc(-c2ccc3[nH]nc(-c4nc5c(-c6cccnc6)nccc5[nH]4)c3n2)c1` [Compound 93, N-(5-(3-(4-(Pyridin-3-yl)-1H-imidazo[4,5-c]pyridin-2-yl)-1H-pyrazolo[4,3-b]pyridin-5-yl)pyridin-3-yl)isobutyramide], the Emax in experiment [1] was found to be 32%. In experiment [2], the EC50 is over 10000 nM and the inhibition at 10 µM amounted to 25.1%.

For `Fc1ccc(-c2nccc3[nH]c(-c4n[nH]c5ccc(-c6cncnc6)nc45)nc23)cc1` [Compound 55, 3-(4-(4-Fluorophenyl)-1H-imidazo[4,5-c]pyridin-2-yl)-5-(pyrimidin-5-yl)-1H-pyrazolo[4,3-b]pyridine], in experiment [1], the Emax was 139% and the EC50 was 900 nM. The compound also had an EC50 in experiment [2] of 1220 nM.

On to `CN(C)Cc1cncc(-c2ccc3[nH]nc(-c4nc5c(N6CCCCC6)nccc5[nH]4)c3n2)c1` [Compound 181, N,N-Dimethyl-1-(5-(3-(4-(piperidin-1-yl)-1H-imidazo[4,5-c]pyridin-2-yl)-1H-pyrazolo [4,3-b]pyridin-5-yl)pyridin-3-yl)methanamine], for which, in experiment [1], the Emax is 43%. Moreover, in experiment [2], the EC50 is over 10000 nM and the inhibition at 10 µM worked out at 8.4%.

`Cc1ccncc1-c1ccc2[nH]nc(-c3nc4c(-c5ccsc5)nccc4[nH]3)c2n1` [Compound 285, 5-(4-Methylpyridin-3-yl)-3-(4-(thiophen-3-yl)-1H-imidazo[4,5-c]pyridin-2-yl)-1H-pyrazolo[4,3-b]pyridine]: the Emax in experiment [1] was 47%. Moreover, the EC50 in experiment [2] was found to be 206 nM.

On to `CCC(=O)Nc1cncc(-c2ccc3[nH]nc(-c4nc5c(-c6cccs6)nccc5[nH]4)c3n2)c1` [Compound 337, N-(5-(3-(4-(Thiophen-2-yl)-1H-imidazo[4,5-c]pyridin-2-yl)-1H-pyrazolo [4,3-b]pyridin-5-yl)pyridin-3-yl)propionamide], for which, in experiment [1], the Emax turned out to be 179% and the EC50 came to 7 nM. Further, in experiment [2], the EC50 was over 10000 nM and the inhibition at 10 µM worked out at 31.8%.

As for `Fc1cccc(-c2nccc3[nH]c(-c4n[nH]c5ccc(-c6cncc(CN7CCC(F)(F)C7)c6)nc45)nc23)c1` [Compound 26, 5-(5-((3,3-Difluoropyrrolidin-1-yl)methyl)pyridin-3-yl)-3-(4-(3-fluorophenyl)-1H-imidazo[4,5-c]pyridin-2-yl)-1H-pyrazolo[4,3-b]pyridine], the Emax in experiment [1] came out at 58%. In addition, the EC50 in experiment [1] was 30 nM; in experiment [2] it was 547 nM.

As for `Cc1ncc(-c2ccc3[nH]nc(-c4nc5c(-c6cccc(F)c6)nccc5[nH]4)c3n2)s1` [Compound 1126, 5-(3-(4-(3-Fluorophenyl)-1H-imidazo[4,5-c]pyridin-2-yl)-1H-pyrazolo[4,3-b]pyridin-5-yl)-2-methylthiazole], the Emax in experiment [1] came out at 43%. In experiment [2], this compound had an EC50 of 235 nM.

Take `CCCC(=O)Nc1cncc(-c2ccc3[nH]nc(-c4nc5c(-c6ccsc6)nccc5[nH]4)c3n2)c1` [Compound 297, N-(5-(3-(4-(Thiophen-3-yl)-1H-imidazo[4,5-c]pyridin-2-yl)-1H-pyrazolo [4,3-b]pyridin-5-yl)pyridin-3-yl)butyramide]: in experiment [1], the Emax worked out at 358% and the EC50 amounted to 7 nM. For the same compound, the EC50 in experiment [2] was determined as 2090 nM.

Regarding `COc1cccc(-c2nccc3[nH]c(-c4n[nH]c5ccc(-c6cccnc6)nc45)nc23)c1` [Compound 994, 3-(4-(3-Methoxyphenyl)-1H-imidazo[4,5-c]pyridin-2-yl)-5-(pyridin-3-yl)-1H-pyrazolo[4,3-b]pyridine], in experiment [1], the Emax is 51% and the EC50 was determined as 30 nM. In experiment [2], this compound showed an EC50 of 421 nM.

On to `CC(C)CC(=O)Nc1cncc(-c2ccc3[nH]nc(-c4nc5c(-c6ccc(Cl)s6)nccc5[nH]4)c3n2)c1` [Compound 1037, N-(5-(3-(4-(5-Chlorothiophen-2-yl)-1H-imidazo[4,5-c]pyridin-2-yl)-1H-pyrazolo [4,3-b]pyridin-5-yl)pyridin-3-yl)-3-methylbutanamide], for which, in experiment [1], the Emax is 104% and the EC50 was 10 nM. In addition, the EC50 in experiment [2] was 719 nM.
